Source: patent publication US5804576A, “Derivatives of 5-androsten-17-ones and 5-androstan-17-ones” (Research Corporation Technologies, Inc., priority 1986, dated 1998)
Several values for one entry are separate records, joined by “and”; a condition that tells them apart may be missing. Identical values can stand only once. Entries after “also recorded” stand apart in the source; their conditions may differ. Like-named read-outs stand apart in the source and are kept apart here.

Tests used:
[1] = target: T1, purified bovine adrenal G6PDH (Bos taurus, UniProt F1MMK2); test: Inhibition of purified bovine adrenal G6PDH; format: biochemical; settings: for inhibition at 0.1 µM: Conc. 0.1 μm; for inhibition at 0.1 µM / inhibition at 1 µM / inhibition at 10 µM: read-out: Percent Inhibition (G6PDH)
T1 construct: full-length, wild type, no tag
T1 sequence (F1MMK2 31-70): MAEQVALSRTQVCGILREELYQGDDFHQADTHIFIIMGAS
T1 sequence (F1MMK2 101-575): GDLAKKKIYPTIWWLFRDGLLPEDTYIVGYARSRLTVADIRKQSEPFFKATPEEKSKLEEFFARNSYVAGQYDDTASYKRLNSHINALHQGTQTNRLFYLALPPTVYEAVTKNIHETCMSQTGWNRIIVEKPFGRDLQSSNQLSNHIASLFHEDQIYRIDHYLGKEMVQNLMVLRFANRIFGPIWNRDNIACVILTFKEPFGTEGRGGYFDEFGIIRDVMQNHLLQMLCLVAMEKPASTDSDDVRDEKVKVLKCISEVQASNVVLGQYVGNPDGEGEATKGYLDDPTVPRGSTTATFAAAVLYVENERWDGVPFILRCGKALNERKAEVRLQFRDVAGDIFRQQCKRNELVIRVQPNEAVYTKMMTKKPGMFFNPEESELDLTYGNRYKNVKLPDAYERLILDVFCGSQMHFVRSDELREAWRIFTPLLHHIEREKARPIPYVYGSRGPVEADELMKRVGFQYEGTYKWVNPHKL
How it was run: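 Inhibition of purified bovine adrenal G6PDH enzyme activity, run by the published Oertel and Rebelein (1969) procedure.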

[2] = Anti-obesity test (body weight, food consumption); format: in vivo, mouse (male A/J); settings: for mean weekly weight / mean weekly weight ± S.D.: n = 5; for mean weekly weight ± S.D.: 0.36% of diet; for weekly weight (Table 13): 0.54% in food
How it was run: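 Male A/J mice, 5 weeks old on arrival, housed 5 per cage at 24 °C on a 12 h light/dark cycle, were given steroid in chow from one week after arrival; dietary concentrations were varied, or 0.54% or 0.36%. Body weight and food consumption (food added minus remaining) were recorded weekly.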

C57BL/KsJ-db/db mice = test: Anti-hyperglycemic activity (blood glucose); format: in vivo, mouse (C57BL/KsJ-db/db); settings: for blood glucose lowering compared with DHEA (in words): compound 16 0.2% vs DHEA 0.4% of diet
Experimental: C57BL/KsJ-db/db 8 week old female mice were obtained and housed in polycarbonate cages in animal quarters maintained at 24° C. with 12 h of light and 12 h of darkness each day.
Mice were placed on a control chow or a chow diet containing either 0.4% DHEA or 0.2% of compound 16.
For determination of blood glucose levels, mice were bled from the orbital sinus using a heparinized capillary tube. 0.2 ml of blood was added to 1.8 ml of water to hemolyze the blood and glucose concentration was determined using the glucose oxidase assay.

rat uterus [3] = test: Uterotrophic test for estrogenic activity, oral; format: in vivo; settings: for Mean Uterine Weight: 3 days, n = 6; for estrogenic activity (in words): rat uterotrophic test
Excerpt: Uterotrophic Test for Estrogenic Activity. Compound 16 vs. DHEA and Estradiol-benzoate. Compounds Given by Oral Administration.
Twenty-two day old rats were obtained from Charles River Laboratories. Animals were used at 29 days of age. Test steroids were suspended by homogenization in sesame oil. Rats were orally intubated at 1-2 P.M. for 3 days with a test steroid in sesame oil or with sesame oil alone (control). On the 4th day the animals were killed and the uteri were removed and weighed.

rat uterus [4] = test: Estrogenic and anti-estrogenic activity (uterine weight, s.c., CD rats); format: in vivo, rat (female CD); settings: for Mean Uterine Weight ± S.D.: 3 days, DHEA vs 16 experiment; for estrogenic / anti-estrogenic effect, uterine weight (in words): s.c., 60 mg/kg or higher, female CD rats
Experimental: Female CD rats, 26-27 days old, were used. Rats were injected subcutaneously for 3 days with either DHEA or 16 in propylene glycol. Control rats received propylene glycol alone. The rats were killed on the 4th day and the uteri were removed and weighed.
Female CD rats, 26-27 days old, were injected subcutaneously for 3 days with one of the compounds of the present invention at 60 mg/kg in propylene glycol. Controls received propylene glycol alone. On the 4th day the rats were killed and the uteri were dissected out and weighed.

[5] = system: seminal vesicles plus prostate glands; test: Androgenic and anti-androgenic activity (seminal vesicle plus prostate weight); format: in vivo, mouse (male A/J); settings: for Mean Seminal Vesicle plus Prostate Weight ± S.D.: 4 weeks; for androgenic / anti-androgenic effect, seminal vesicle plus prostate weight (in words): diet, male A/J mice
Experimental: Male A/J mice (5 weeks old) were obtained from the Jackson Laboratory and were housed in polycarbonate cages (5 mice/cage) in animal quarters maintained at 24°±1° C. with 12 hours of light and 12 hours of darkness each day. One week after arrival, mice were placed on a chow diet containing either 0.18% or 0.09% 16 or without steroid. Mice were weighed weekly. After 4 weeks, the mice were killed, and the seminal vesicles plus prostate glands were dissected out and weighed.
(a) Male A/J mice (5 weeks old) were obtained from the Jackson Laboratory and were housed in polycarbonate cages (5 mice/cage) in animal quarters maintained at 24°[…] C. with 12 hours of light and 12 hours of darkness each day. One week after arrival, the mice were placed on a chow diet containing one of the test compounds of the present invention at 0.36%. After 4 weeks of treatment, the above mice were killed, and the seminal vesicles and prostate glands were dissected out and weighed.

[6] = system: DMBA-initiated and TPA-promoted skin papilloma formation in mice; settings: mouse, in vivo; cited from earlier work

C[C@]12CC[C@H](O)CC1=CC[C@@H]1[C@@H]2CC[C@]2(C)C(=O)CC[C@@H]12 [DHEA, 3β-Hydroxy-5-androst-en-17-one, reference compound]
inhibition at 0.1 µM [1]: 12%
Percent Inhibition (G6PDH) ([1]; Conc. 1 μm): 17%
inhibition at 1 µM ([1]; Conc. 1 μm): 36%
Percent Inhibition (G6PDH) ([1]; Conc. 10 μm): 57%
Percent Inhibition (G6PDH) ([1]; Conc. 10 μm, listed as 1): 53%
inhibition at 10 µM ([1]; Conc. 10 μm): 51%
mean weekly weight ([2]; 0.18% of diet, week 0): 22.4 ± 1.8 grams
mean weekly weight ([2]; 0.18% of diet, week 1): 20.4 ± 1.9 grams
mean weekly weight ([2]; 0.18% of diet, week 2): 21.1 ± 0.5 grams
mean weekly weight ([2]; 0.18% of diet, week 3): 22.4 ± 0.8 grams
mean weekly weight ([2]; 0.18% of diet, week 4): 23.6 ± 1.5 grams
mean weekly weight ([2]; 0.35% of diet, week 0): 21.8 ± 2.2 grams and 22.4 ± 2.3 grams
mean weekly weight ([2]; 0.35% of diet, week 1): 20.0 ± 2.3 grams and 16.0 ± 1.6 grams
mean weekly weight ([2]; 0.35% of diet, week 2): 19.2 ± 1.8 grams and 20.2 ± 0.9 grams
mean weekly weight ([2]; 0.35% of diet, week 3): 19.6 ± 2.8 grams and 21.0 ± 0.8 grams
mean weekly weight ([2]; 0.35% of diet, week 4): 22.2 ± 2.4 grams and 22.2 ± 0.9 grams
mean weekly weight ([2]; 0.35% of diet, week 5): 21.8 ± 2.2 grams
mean weekly weight ([2]; 0.35% of diet, week 7): 23.2 ± 2.4 grams
mean weekly weight ± S.D. ([2]; week 0): 23.2 ± 1.3 grams
mean weekly weight ± S.D. ([2]; week 1): 21.8 ± 1.0 grams
mean weekly weight ± S.D. ([2]; week 2): 20.8 ± 1.0 grams
anti-weight effect (in words) ([2]; 400 mg/kg repeated (DHEA), cancer preventive dosages (19, 20)): produces an anti-weight effect
weekly weight (Table 13) ([2]; week 0): 21.2 ± 1.4
weekly weight (Table 13) ([2]; week 1): 16.8 ± 1.6
weekly weight (Table 13) ([2]; week 2): 16.7 ± 2.0
weekly weight (Table 13) ([2]; week 3): 18.8 ± 1.1
weekly weight (Table 13) ([2]; week 4): 19.0 ± 2.0
weekly weight (Table 13) ([2]; week 5): 19.6 ± 2.8
mean weekly weight ([2]; 0.7% of diet, week 0): 21.1 ± 2.8 grams and 22.0 ± 2.5 grams
mean weekly weight ([2]; 0.7% of diet, week 1): 15.2 ± 1.8 grams and 17.0 ± 1.9 grams
mean weekly weight ([2]; 0.7% of diet, week 2): 17.0 ± 2.0 grams and 17.8 ± 1.8 grams
mean weekly weight ([2]; 0.7% of diet, week 3): 17.8 ± 1.1 grams and 18.4 ± 1.8 grams
mean weekly weight ([2]; 0.7% of diet, week 4): 18.8 ± 1.1 grams and 19.2 ± 1.6 grams
mean weekly weight ([2]; 0.7% of diet, week 5): 18.2 ± 1.3 grams and 20.2 ± 1.9 grams
mean weekly weight ([2]; 0.7% of diet, week 6): 19.8 ± 2.0 grams
Anti-obesity Activity relative to DHEA ([2]; Table 14, DHEA = 1×): 1 ×
Blood Glucose Levels (C57BL/KsJ-db/db mice; 0.4% of diet, week 0): 214 ± 59 mg/deciliter and 232 ± 28 mg/deciliter
Blood Glucose Levels (C57BL/KsJ-db/db mice; 0.4% of diet, week 1): 161 ± 19 mg/deciliter and 132 ± 14 mg/deciliter
Blood Glucose Levels (C57BL/KsJ-db/db mice; 0.4% of diet, week 2): 145 ± 19 mg/deciliter and 135 ± 37 mg/deciliter
Blood Glucose Levels (C57BL/KsJ-db/db mice; 0.4% of diet, week 3): 117 ± 12 mg/deciliter
Blood Glucose Levels (C57BL/KsJ-db/db mice; 0.4% of diet, week 4): 112 ± 4 mg/deciliter
Anti-diabetic Activity relative to DHEA (C57BL/KsJ-db/db mice; Table 15, DHEA = 1×): 1 ×
Blood Glucose Levels (C57BL/KsJ-db/db mice; after 0.4% of diet, 24 hrs. on control diet): 192 ± 32 mg/deciliter
Blood Glucose Levels (C57BL/KsJ-db/db mice; after 0.4% of diet, 48 hrs. on control diet): 310 ± 37 mg/deciliter
Mean Uterine Weight (rat uterus [3]; 400 mg/kg oral): 261 ± 23 Mgs
estrogenic activity (in words) (rat uterus [3]): significantly estrogenic
Mean Uterine Weight ± S.D. (rat uterus [4]; 60 mg/kg s.c.): 222 ± 77 mg/100 gm body weight
Mean Seminal Vesicle plus Prostate Weight ± S.D. ([5]; 0.36% of diet, n = 5): 6.5 ± 1.2 mg/100 gm body weight
androgenic / anti-androgenic effect, seminal vesicle plus prostate weight (in words) [5]: significantly reduced seminal vesical plus prostate gland weight
inhibition of DMBA-initiated and TPA-promoted skin papilloma formation (in words) [6]: inhibit

C[C@H]1CC[C@@]2(C)C(=CC[C@@H]3[C@@H]2CC[C@]2(C)C(=O)CC[C@@H]32)C1 [Compound 16, 3β-methyl-5-androsten-17-one]
inhibition at 0.1 µM [1]: 25%
inhibition at 1 µM ([1]; Conc. 1 μm): 40%
inhibition at 10 µM ([1]; Conc. 10 μm): 53%
Anti-obesity Activity relative to DHEA [2]: more than 2 X
mean weekly weight ([2]; 0.18% of diet, week 0): 22.6 ± 2.7 grams
mean weekly weight ([2]; 0.18% of diet, week 1): 19.8 ± 2.3 grams
mean weekly weight ([2]; 0.18% of diet, week 2): 19.4 ± 2.1 grams
mean weekly weight ([2]; 0.18% of diet, week 3): 19.4 ± 2.1 grams
mean weekly weight ([2]; 0.18% of diet, week 4): 19.6 ± 2.2 grams
mean weekly weight ([2]; 0.35% of diet, week 0): 22.0 ± 2.5 grams
mean weekly weight ([2]; 0.35% of diet, week 1): 16.8 ± 1.6 grams
mean weekly weight ([2]; 0.35% of diet, week 2): 18.2 ± 0.8 grams
mean weekly weight ([2]; 0.35% of diet, week 3): 17.2 ± 1.7 grams
mean weekly weight ([2]; 0.35% of diet, week 4): 17.0 ± 1.2 grams
mean weekly weight ± S.D. ([2]; week 0): 23.3 ± 2.5 grams
mean weekly weight ± S.D. ([2]; week 1): 18 ± 1.5 grams
mean weekly weight ± S.D. ([2]; week 2): 17.1 ± 1.6 grams
Blood Glucose Levels (C57BL/KsJ-db/db mice; 0.2% of diet, week 0, listed as Cpd 16): 216 ± 61 mg/deciliter
Blood Glucose Levels (C57BL/KsJ-db/db mice; 0.2% of diet, week 0, listed as Cpd. 16): 244 ± 32 mg/deciliter
Blood Glucose Levels (C57BL/KsJ-db/db mice; 0.2% of diet, week 1, listed as Cpd 16): 135 ± 15 mg/deciliter
Blood Glucose Levels (C57BL/KsJ-db/db mice; 0.2% of diet, week 1, listed as Cpd. 16): 143 ± 21 mg/deciliter
Blood Glucose Levels (C57BL/KsJ-db/db mice; 0.2% of diet, week 2, listed as Cpd 16): 118 ± 12 mg/deciliter
Blood Glucose Levels (C57BL/KsJ-db/db mice; 0.2% of diet, week 2, listed as Cpd. 16): 134 ± 13 mg/deciliter
Blood Glucose Levels (C57BL/KsJ-db/db mice; 0.2% of diet, week 3): 102 ± 8 mg/deciliter
Blood Glucose Levels (C57BL/KsJ-db/db mice; 0.2% of diet, week 4): 105 ± 5 mg/deciliter
Blood Glucose Levels (C57BL/KsJ-db/db mice; after 0.2% of diet, 24 hrs. on control diet): 147 ± 10 mg/deciliter
Blood Glucose Levels (C57BL/KsJ-db/db mice; after 0.2% of diet, 48 hrs. on control diet): 262 ± 23 mg/deciliter
blood glucose lowering compared with DHEA (in words) (C57BL/KsJ-db/db mice): more effective in lowering blood glucose concentration
blood glucose lowering compared with DHEA (in words) (C57BL/KsJ-db/db mice; listed as compound 16): significantly more slowly in the mice that had received compound 16
Mean Uterine Weight (rat uterus [3]; 200 mg/kg oral): 189 ± 14 Mgs
Mean Uterine Weight (rat uterus [3]; 400 mg/kg oral): 174 ± 20 Mgs
estrogenic activity (in words) (rat uterus [3]): Neither compounds 16 nor 2 are estrogenic; also recorded: devoid of estrogenic activity in the rat uterotrophic test
estrogenic activity (in words) (rat uterus [3]; listed as compound 16): without any apparent estrogenic effect
Mean Uterine Weight ± S.D. (rat uterus [4]; 60 mg/kg s.c.): 126 ± 87 mg/100 gm body weight
Mean Uterine Weight ± S.D. (rat uterus [4]; 120 mg/kg s.c.): 111 ± 27 mg/100 gm body weight
estrogenic / anti-estrogenic effect, uterine weight (in words) (rat uterus [4]; 60 mg/kg): reduction in uterine weight; also recorded: apparently acts as an anti-estrogen
estrogenic / anti-estrogenic effect, uterine weight (in words) (rat uterus [4]; listed as cmpd. 16, 60 mg/kg): significantly greater than that of the cmpd. 21 treated rats; also recorded: highly significant anti-estrogenic activity
Mean Seminal Vesicle plus Prostate Weight ± S.D. ([5]; 0.09% of diet, n = 6): 4.0 ± 0.7 mg/100 gm body weight
Mean Seminal Vesicle plus Prostate Weight ± S.D. ([5]; 0.18% of diet, n = 6): 3.4 ± 0.11 mg/100 gm body weight
Mean Seminal Vesicle plus Prostate Weight ± S.D. ([5]; 0.36% of diet, n = 5): 3.0 ± 0.3 mg/100 gm body weight
androgenic / anti-androgenic effect, seminal vesicle plus prostate weight (in words) [5]: significantly reduced the weight of the seminal vesicles and prostate glands; also recorded: significantly reduced the seminal vesicle plus prostate gland weight
androgenic / anti-androgenic effect, seminal vesicle plus prostate weight (in words) ([5]; listed as Cmpd. 16): significantly reduced seminal vesicle plus prostate weight
inhibition of DMBA-initiated and TPA-promoted skin papilloma formation (in words) [6]: inhibit
